Series [1] relates to consortium of bacteria: mixture of Pseudomonas aeruginosa, Klebsiella pneumoniae, Staphylococcus aureus, and Bacillus subtilis. Put plainly: Growth inhibition assay (microtiter plate-based synergy assay). In kind it is cell-based. To be noted: used alone, 24 hr. The protocol: (§1) The assay of this Example measures the efficacy of the biocides at preventing growth of a consortium of bacteria in a dilute mineral salts medium. The medium contains (in mg/l) the following components: FeCl3.6H2O (1); CaCl2.2H2O (10); MgSO4.7H2O (22.5); (NH4)2SO4 (40); KH2PO4 (10); K2HPO4 (25.5); Yeast Extract (10); and glucose (100). After all components are added to deionized water, the pH of the medium is adjusted to 7.5. Following filter sterilization, aliquots are dispensed in […] quantities to sterile microtiter plate wells. Dilutions of 2,2-dibromomalonamide (“DBMAL”) and/or “Biocide B” are then added to the microtiter plate. After preparing the combinations of actives as illustrated below, each well is inoculated with 100 μl of a cell suspension containing ca. 1×10^6 cells per milliliter of a mixture of Pseudomonas aeruginosa, Klebsiella pneumoniae, Staphylococcus aureus, and Bacillus subtilis. The final total volume of medium in each well is 300 μl. Once prepared as described herein, the concentration of each active ranges from 25 ppm to 0.195 ppm as illustrated in Table 1. The resulting matrix allows testing of eight concentrations of each active and 64 combinations of actives at varying ratios.
(§2) Controls (not shown) contain the medium with no biocide added. Immediately after the microtiter plates are prepared, the optical density (OD) readings for each well are measured at 600 nm and the plates are then incubated at 37° C. for 24 hr. After the incubation period, the plates are gently agitated before OD values are collected. The OD values at t(0) are subtracted from t(24) values to determine the total amount of growth (or lack thereof) that occurs. These values are used to calculate the percent inhibition of growth caused by the presence of each biocide and each of the 64 combinations.
(§3) where • MDBMAL: Concentration of DBMAL required to inhibit ˜90% of bacterial growth when used in combination with DBNPA. • CDBMAL: Concentration of DBMAL required to inhibit ˜90% of bacterial growth when used alone. • MDBNPA: Concentration of DBNPA required to inhibit ˜90% of bacterial growth when used in combination with DBMAL. • CDBNPA: Concentration of DBNPA required to inhibit ˜90% of bacterial growth when used alone. The SI values are interpreted as follows: • SI<1: Synergistic combination • SI=1: Additive combination • SI>1: Antagonistic combination
(§4) In the Example, the amounts of biocides in the solution are measured in mg per liter of solution (mg/l). Since solution densities are approximately 1.00, the mg/l measurement corresponds to weight ppm. Both units may therefore be used interchangeably in the Examples.

Assay in series [2]: as above
In kind it is cell-based. To be noted: 24 hr, read-out: Percent inhibition of growth; for inhibition at 0.2 ppm: 0.20 ppm; for inhibition at 12.5 ppm: 12.50 ppm. The procedure: as §1, §2, §3, §4

For series [3] the following is noted: cited from earlier work.

Read-outs that look alike come from different tables or passages of the source.

With `N#CC(Br)(Br)C(N)=O` [DBNPA, 2,2-dibromo-3-nitrilopropionamide], in series [1], the “Minimum concentration that caused ~90% inhibition of growth (CDBNPA)” value was 3.13 mg/L. For the same molecule, in series [2] (DBNPA alone), the inhibition at 0.2 ppm amounted to 0%, the inhibition at 1.56 ppm is 75%, the inhibition at 6.25 ppm came out at 82% and the inhibition at 12.5 ppm was determined as 88%. Further, the inhibition at 25 ppm in series [2] (DBNPA alone) stood at 96%. For the same molecule, the inhibition at 0.39 ppm in series [2] (DBNPA alone, 0.39 ppm) amounted to 0%. Also, in series [2] (DBNPA alone, 0.78 ppm), the inhibition at 0.78 ppm turned out to be 0%. Moreover, the inhibition at 3.13 ppm in series [2] (DBNPA alone, 3.13 ppm) turned out to be 98%. For the same molecule, the “factor of increase of rate of disappearance” value in series [3] (going from pH 6 to pH 8.9) is “about 450”. Moreover, in series [3] (pH 8), the “half life (hydrolytic degradation)” value was 2 h. Moreover, in series [3] (pH 11.3), the “half life (hydrolytic degradation)” value is 0.00694 h.

`NC(=O)C(Br)(Br)C(N)=O` [DBMAL, 2,2-dibromomalonamide]: in series [2] (DBMAL alone), the inhibition at 0.2 ppm is 0%, the inhibition at 1.56 ppm was 11%, the inhibition at 6.25 ppm amounted to 38% and the inhibition at 12.5 ppm amounted to 92%. For the same molecule, in series [2] (DBMAL alone), the inhibition at 25 ppm worked out at 96%.

(Values after patent US8852619B2, “Compositions of dibromomalonamide and their use as biocides” (Dow Global Technologies LLC, priority 2009, dated 2014).)
